Measurements taken from US10065954B2, “Substituted imidazo[4,5-c]pyridines as SSAO inhibitors” (Proximagen Limited, priority 2014, dated 2018).

target: T1, purified recombinantly expressed human SSAO (Homo sapiens, UniProt Q16853); experiment: SSAO enzyme inhibition assay (benzylamine substrate; hydrogen peroxide/HRP-coupled or 14C-aldehyde detection); assay type: biochemical; details: SSAO inhibitory activity; recombinant human SSAO, RT
T1 construct: made in house
T1 sequence (Q16853 1-763): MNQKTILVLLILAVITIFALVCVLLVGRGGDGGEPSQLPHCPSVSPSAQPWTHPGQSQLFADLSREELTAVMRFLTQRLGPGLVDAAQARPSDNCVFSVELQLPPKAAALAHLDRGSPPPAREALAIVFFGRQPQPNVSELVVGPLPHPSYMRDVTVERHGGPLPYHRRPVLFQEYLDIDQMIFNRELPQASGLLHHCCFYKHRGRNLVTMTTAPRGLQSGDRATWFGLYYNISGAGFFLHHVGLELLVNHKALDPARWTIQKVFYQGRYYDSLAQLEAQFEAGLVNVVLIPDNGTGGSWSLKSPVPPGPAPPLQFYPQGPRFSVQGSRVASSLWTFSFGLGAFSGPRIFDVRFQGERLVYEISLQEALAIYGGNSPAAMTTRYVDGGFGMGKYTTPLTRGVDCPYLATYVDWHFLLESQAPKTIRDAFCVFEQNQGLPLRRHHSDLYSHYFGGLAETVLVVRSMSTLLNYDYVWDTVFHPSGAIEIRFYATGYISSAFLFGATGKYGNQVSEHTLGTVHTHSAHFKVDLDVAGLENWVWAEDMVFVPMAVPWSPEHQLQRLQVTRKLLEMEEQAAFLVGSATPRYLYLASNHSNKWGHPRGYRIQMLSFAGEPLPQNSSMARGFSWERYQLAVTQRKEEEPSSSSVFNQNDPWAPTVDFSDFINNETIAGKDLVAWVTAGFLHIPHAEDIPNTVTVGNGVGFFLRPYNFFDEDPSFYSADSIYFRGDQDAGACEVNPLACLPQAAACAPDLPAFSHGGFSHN
Description: All primary assays were performed at RT. with purified recombinantly expressed human SSAO. Enzyme was prepared essentially as described in Öhman et al. (Protein Expression and Purification 46 (2006) 321-331). In addition, secondary- and selectivity assays were performed using SSAO prepared from various tissues or purified rat recombinant SSAO. The enzyme activity was assayed with benzylamine as substrate by measuring either benzaldehyde production, using ^14C-labeled substrate, or by utilizing the production of hydrogen peroxide in a horseradish peroxidase (HRP) coupled reaction. Briefly, test compounds were dissolved in dimethyl sulfoxide (DMSO) to a concentration of 10 mM. Dose-response measurements were assayed by either creating 1:10 serial dilutions in DMSO to produce a 7 point curve or by making 1:3 serial dilutions in DMSO to produce 11 point curves. The top concentrations were adjusted depending on the potency of the compounds and subsequent dilution in reaction buffer yielded a final DMSO concentration ≤2%.
In a horseradish peroxidase (HRP) coupled reaction, hydrogen peroxide oxidation of 10-acetyl-3,7-dihydroxyphenoxazine produced resorufin, which is a highly fluorescent compound (Zhout and Panchuk-Voloshina. Analytical Biochemistry 253 (1997) 169-174; Amplex® Red Hydrogen Peroxide/peroxidase Assay kit, Invitrogen A22188). Enzyme and compounds in 50 mM sodium phosphate, pH 7.4 were set to pre-incubate in flat-bottomed microtiter plates for approximately 15 min before initiating the reaction by addition of a mixture of HRP, benzylamine and Amplex reagent. Benzylamine concentration was fixed at a concentration corresponding to the Michaelis constant, determined using standard procedures. Fluorescence intensity was then measured at several time points during 1-2 h, exciting at 544 nm and reading the emission at 590 nm. For the human SSAO assay final concentrations of the reagents in the assay wells were: SSAO enzyme 1 ug/mL, benzylamine 100 uM, Amplex reagent 20 uM, HRP 0.1 U/mL and varying concentrations of test compound. The inhibition was measured as % decrease of the signal compared to a control without inhibitor (only diluted DMSO). The background signal from a sample containing no SSAO enzyme was subtracted from all data points. Data was fitted to a four parameter logistic model and IC50 values were calculated using the GraphPad Prism 4 or XLfit 4 programs.
SSAO activity was assayed using […] benzylamine and analysed by measuring radioactive benzaldehyde. In a white 96-well optiplate (Packard), 20 uL of diluted test compound was pre-incubated at RT with 20 uL SSAO enzyme for approximately 15 min with continuous agitation. All dilutions were made with PBS. The reaction was initiated by adding 20 uL of the benzylamine substrate solution containing Benzylamine hydrochloride (CFA589, GE Healthcare). The plate was incubated for 1 h as above after which the reaction was stopped by acidification (10 uL 1M aq HCl). Then 90 uL Micro Scint-E solution (Perkin-Elmer) was added to each well and the plate was continuously mixed for 15 min. Phase separation occurred instantly and activity was read in a Topcount scintillation counter (Perkin-Elmer). In the final reaction well, the human recombinant SSAO concentration was 10 ug/mL. In order to optimize sensitivity, the substrate concentration was decreased as compared to the HRP coupled assay in order to get a higher fraction of radioactive product. In the human SSAO assay, benzylamine concentration was 40 uM (0.2uCi/mL). Data was analysed as above.

IC50 | SMILES
< 50 nM | Cc1ccc(-n2c(-c3ccc(N4CCC(F)(F)CC4)nc3)nc3ccncc32)cc1 [Compound 11, 2-(4,4-Difluoropiperidin-1-yl)-5-[3-(4-methylphenyl)-3H-imidazo[4,5-c]pyridin-2-yl]pyridine]
200 to 1200 nM | Cc1ccc(-n2c(-c3ccc(NC4CC4)nc3)nc3ccncc32)cn1 [Compound 23, N-Cyclopropyl-5-[3-(6-methylpyridin-3-yl)-3H-imidazo[4,5-c]pyridin-2-yl]pyridin-2-amine]
< 50 nM | Fc1ccc(-n2c(-c3ccc(NCCN4CCOCC4)nc3)nc3ccncc32)cc1 [Compound 20, 5-[3-(4-Fluorophenyl)-3H-imidazo[4,5-c]pyridin-2-yl]-N-[2-(morpholin-4-yl)ethyl]pyridin-2-amine]
< 50 nM | Cc1ccc(-n2c(-c3ccc(N4CCCC4)cc3)nc3ccncc32)cn1 [Compound 31, 2-Methyl-5-{2-[4-(pyrrolidin-1-yl)phenyl]-3H-imidazo[4,5-c]pyridin-3-yl}pyridine]
< 50 nM | CCN(CC)c1ncc(-c2nc3ccncc3n2-c2ccc(F)cc2)cn1 [Compound 5, N,N-Diethyl-5-[3-(4-fluorophenyl)-3H-imidazo[4,5-c]pyridin-2-yl]pyrimidin-2-amine]
< 50 nM | Fc1ccc(-n2c(-c3ccc(NC4CC4)nc3)nc3ccncc32)cc1 [Compound 22, N-Cyclopropyl-5-[3-(4-fluorophenyl)-3H-imidazo[4,5-c]pyridin-2-yl]pyridin-2-amine]
< 50 nM | Cc1ccc(-n2c(-c3cnc(N4CCOCC4)cc3C)nc3ccncc32)c(F)c1 [Compound 8, 4-{5-[3-(2-Fluoro-4-methylphenyl)-3H-imidazo[4,5-c]pyridin-2-yl]-4-methylpyridin-2-yl}morpholine]
200 to 1200 nM | Fc1ccc(-n2c(-c3ccc(Cl)nc3)nc3ccncc32)cc1 [Compound 39, 2-Chloro-5-[3-(4-fluorophenyl)-3H-imidazo[4,5-c]pyridin-2-yl]pyridine]
50 to 200 nM | Cc1ccc(-n2c(-c3cnc(N4CCOCC4)cc3C)nc3ccncc32)nc1 [Compound 13, 4-{4-Methyl-5-[3-(5-methylpyridin-2-yl)-3H-imidazo[4,5-c]pyridin-2-yl]pyridin-2-yl}morpholine]

Second part, the compound before the results:

SMILES | IC50
Fc1ccc(-n2c(-c3cnc(N4CCCC4)nc3)nc3ccncc32)nc1 [Compound 27, 5-[3-(5-Fluoropyridin-2-yl)-3H-imidazo[4,5-c]pyridin-2-yl]-2-(pyrrolidin-1-yl)pyrimidine] | 50 to 200 nM
Cc1ccc(-n2c(-c3cnc(N4CCCC4)nc3)nc3ccncc32)cc1 [Compound 29, 5-[3-(4-Methylphenyl)-3H-imidazo[4,5-c]pyridin-2-yl]-2-(pyrrolidin-1-yl)pyrimidine] | < 50 nM
Clc1ccc(-n2c(-c3ccc(Cl)nc3)nc3ccncc32)cc1 [Compound 38, 2-Chloro-5-[3-(4-chlorophenyl)-3H-imidazo[4,5-c]pyridin-2-yl]pyridine] | 200 to 1200 nM
Cc1ccc(-n2c(-c3ccc(N4CCCC4)cc3F)nc3ccncc32)cn1 [Compound 32, 5-{2-[2-Fluoro-4-(pyrrolidin-1-yl)phenyl]-3H-imidazo[4,5-c]pyridin-3-yl}-2-methylpyridine] | < 50 nM
Cc1cc(N2CCOCC2)ncc1-c1nc2ccncc2n1-c1ccc(Cl)cc1 [Compound 9, 4-{5-[3-(4-Chlorophenyl)-3H-imidazo[4,5-c]pyridin-2-yl]-4-methylpyridin-2-yl}morpholine] | < 50 nM
Cc1ccc(-n2c(-c3ccc(NC(C)C)nc3)nc3ccncc32)cc1 [Compound 24, 5-[3-(4-Methylphenyl)-3H-imidazo[4,5-c]pyridin-2-yl]-N-(propan-2-yl)pyridin-2-amine] | < 50 nM
Cc1ccc(-n2c(-c3ccc(N4CCOCC4)cc3)nc3ccncc32)nc1 [Compound 30, 4-{4-[3-(5-Methylpyridin-2-yl)-3H-imidazo[4,5-c]pyridin-2-yl]phenyl}morpholine] | 200 to 1200 nM
